Results from US8895585B2, “Nicotinamide derivative or salt thereof” (FUJIFILM Corporation, priority 2010, dated 2014).

What was measured:
[1] = target: T1, glutathione S-transferase (GST)-fused full-length human Syk protein (Homo sapiens, UniProt P43405); experiment: Syk enzyme assay; assay type: biochemical; details: Syk enzyme assay, Test Example 1; read-out: IC50 of Syk-inhibitory activity
T1 construct: (GST)-fused full-length human Syk protein; GST (glutathione S-transferase); purchased Carna Biosciences
How it was run: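 IC50 values come from a time-resolved FRET readout (615 and 665 nm) of substrate phosphorylation, measured after an EDTA stop and 1 h antibody binding. The kinase reaction ran 40 min at room temperature with 27 μM ATP and 0.4 μM biotin-peptide, following a 15 min compound preincubation with baculovirus-made GST-full-length human Syk.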

THP-1 cells = experiment: TNFα generation assay; assay type: cell-based, human; details: Homo sapiens, THP-1, THP-1 cells; Table 22; read-out: IC50 in TNFα generation assay
How it was run: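 THP-1 cells differentiated to macrophage-like cells with 10 ng/ml IFN-γ for 2 days, preincubated with compound 30 min at room temperature, then cultured 7 h on plates coated with human IgG (10 μg/ml). Secreted TNFα measured by ELISA or AlphaLISA.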

IC50 [1]	IC50 (THP-1 cells)	Structure (SMILES)
< 0.01 µM	0.13 to 0.2 µM	CC(C)C[C@H](CN)Nc1nc(Nc2cncc(Cl)c2)c(C(N)=O)cc1F [Example 006-180, (R)-6-((1-amino-4-methylpentan-2-yl)amino)-2-((5-chloropyridin-3-yl)amino)-5-fluoronicotinamide]
< 0.01 µM	< 0.065 µM	NC[C@H](Nc1nc(Nc2ccc3ncccc3c2)c(C(N)=O)cc1F)C1CC1 [Example 006-186, (R)-6-((2-amino-1-cyclopropylethyl)amino)-5-fluoro-2-((quinolin-6-yl)amino)nicotinamide]
< 0.01 µM	< 0.065 µM	CC[C@@H](Nc1nc(Nc2cnc3cc(OC)ccc3c2)c(C(N)=O)cc1F)[C@H](C)N [Example 006-190, 6-(((2S,3R)-2-aminopentan-3-yl)amino)-5-fluoro-2-((7-methoxyquinolin-3-yl)amino)nicotinamide]
< 0.01 µM	0.065 to 0.13 µM	CC[C@H](N)[C@@H](C)Nc1nc(Nc2ccc3ncccc3c2)c(C(N)=O)cc1F [Example 006-198, 6-(((2R,3S)-3-aminopentan-2-yl)amino)-5-fluoro-2-((quinolin-6-yl)amino)nicotinamide]
< 0.01 µM	0.065 to 0.13 µM	CC[C@H](N)[C@@H](CC)Nc1nc(Nc2ccc3ncccc3c2)c(C(N)=O)cc1F [Example 006-199, 6-(((3R,4S)-4-aminohexan-3-yl)amino)-5-fluoro-2-((quinolin-6-yl)amino)nicotinamide]
< 0.01 µM	0.065 to 0.13 µM	CCC[C@@H](Nc1nc(Nc2ccc3ncccc3c2)c(C(N)=O)cc1F)[C@@H](N)CC [Example 006-200, 6-(((3S,4R)-3-aminoheptan-4-yl)amino)-5-fluoro-2-((quinolin-6-yl)amino)nicotinamide]
< 0.01 µM	0.13 to 0.2 µM	CC[C@H](N)[C@@H](CC(C)C)Nc1nc(Nc2ccc3ncccc3c2)c(C(N)=O)cc1F [Example 006-201, 6-(((4R,5S)-5-amino-2-methylheptan-4-yl)amino)-5-fluoro-2-((quinolin-6-yl)amino)nicotinamide]
< 0.01 µM	0.065 to 0.13 µM	CCC[C@@H](Nc1nc(Nc2cnc3cc(OC)ccc3c2)c(C(N)=O)cc1F)[C@H](C)N [Example 006-204, 6-(((2S,3R)-2-aminohexan-3-yl)amino)-5-fluoro-2-((7-methoxyquinolin-3-yl)amino)nicotinamide]
< 0.01 µM	0.13 to 0.2 µM	COc1ccc2cc(Nc3nc(N[C@H](CC(C)C)[C@H](C)N)c(F)cc3C(N)=O)cnc2c1 [Example 006-206, 6-(((2S,3R)-2-amino-5-methylhexan-3-yl)amino)-5-fluoro-2-((7-methoxyquinolin-3-yl)amino)nicotinamide]
< 0.01 µM	< 0.065 µM	CCC[C@@H](Nc1nc(Nc2ccc3ncccc3c2)c(C(N)=O)cc1F)[C@H](C)N [Example 006-207, 6-(((2S,3R)-2-aminohexan-3-yl)amino)-5-fluoro-2-((quinolin-6-yl)amino)nicotinamide]
< 0.01 µM	0.065 to 0.13 µM	CCCC[C@@H](Nc1nc(Nc2ccc3ncccc3c2)c(C(N)=O)cc1F)[C@H](C)N [Example 006-208, 6-(((2S,3R)-2-aminoheptan-3-yl)amino)-5-fluoro-2-((quinolin-6-yl)amino)nicotinamide]
< 0.01 µM	0.065 to 0.13 µM	CC(C)C[C@@H](Nc1nc(Nc2ccc3ncccc3c2)c(C(N)=O)cc1F)[C@H](C)N [Example 006-209, 6-(((2S,3R)-2-amino-5-methylhexan-3-yl)amino)-5-fluoro-2-((quinolin-6-yl)amino)nicotinamide]
< 0.01 µM	< 0.065 µM	CC[C@@H](Nc1nc(Nc2ccc3c(cnn3C)c2)c(C(N)=O)cc1F)[C@H](C)N [Example 006-210, 6-(((2S,3R)-2-aminopentan-3-yl)amino)-5-fluoro-2-((1-methyl-1H-indazol-5-yl)amino)nicotinamide]
< 0.01 µM	0.13 to 0.2 µM	CC(C)C[C@H](CN)Nc1nc(Nc2ccc3nccnc3c2)c(C(N)=O)cc1F [Example 006-212, (R)-6-((1-amino-4-methylpentan-2-yl)amino)-5-fluoro-2-((quinoxalin-6-yl)amino)nicotinamide]
< 0.01 µM	0.065 to 0.13 µM	NC[C@@H](CC1CC1)Nc1nc(Nc2ccc3ncccc3c2)c(C(N)=O)cc1F [Example 006-214, (R)-6-((1-amino-3-cyclopropylpropan-2-yl)amino)-5-fluoro-2-((quinolin-6-yl)amino)nicotinamide]
< 0.01 µM	0.065 to 0.13 µM	COc1ccc2cc(Nc3nc(N[C@@H](CN)CC4CC4)c(F)cc3C(N)=O)cnc2c1 [Example 006-215, (R)-6-((1-amino-3-cyclopropylpropan-2-yl)amino)-5-fluoro-2-((7-methoxyquinolin-3-yl)amino)nicotinamide]

IC50 [1]	IC50 (THP-1 cells)	Structure (SMILES)
0.01 to 0.05 µM	0.065 to 0.13 µM	C[C@H](N)[C@@H](C)Nc1nc(Nc2cncc(Cl)c2)c(C(N)=O)cc1F [Example 006-216, 6-(((2R,3S)-3-aminobutan-2-yl)amino)-2-((5-chloropyridin-3-yl)amino)-5-fluoronicotinamide]
< 0.01 µM	< 0.065 µM	C[C@H](N)[C@@H](CC1CC1)Nc1nc(Nc2ccc3ncccc3c2)c(C(N)=O)cc1F [Example 006-217, 6-(((2R,3S)-3-amino-1-cyclopropylbutan-2-yl)amino)-5-fluoro-2-((quinolin-6-yl)amino)nicotinamide]
< 0.01 µM	0.065 to 0.13 µM	CC[C@@H](Nc1nc(Nc2cncc(-n3cccn3)c2)c(C(N)=O)cc1F)[C@H](C)N [Example 006-218, 2-((5-(1H-pyrazol-1-yl)pyridin-3-yl)amino)-6-(((2S,3R)-2-aminopentan-3-yl)amino)-5-fluoronicotinamide]
< 0.01 µM	< 0.065 µM	CCC[C@@H](Nc1nc(Nc2ccnc(-c3ccco3)c2)c(C(N)=O)cc1F)[C@H](C)N [Example 006-220, 6-(((2S,3R)-2-aminohexan-3-yl)amino)-5-fluoro-2-((2-(furan-2-yl)pyridin-4-yl)amino)nicotinamide]
< 0.01 µM	0.065 to 0.13 µM	CCC[C@@H](Nc1nc(Nc2ccnc(-n3nccn3)c2)c(C(N)=O)cc1F)[C@H](C)N [Example 006-221, 2-((2-(2H-1,2,3-triazol-2-yl)pyridin-4-yl)amino)-6-(((2S,3R)-2-aminohexan-3-yl)amino)-5-fluoronicotinamide]
< 0.01 µM	0.065 to 0.13 µM	CCC[C@@H](Nc1nc(Nc2cncc(-c3ccccc3F)c2)c(C(N)=O)cc1F)[C@H](C)N [Example 006-222, 6-(((2S,3R)-2-aminohexan-3-yl)amino)-5-fluoro-2-((5-(2-fluorophenyl)pyridin-3-yl)amino)nicotinamide]
< 0.01 µM	< 0.065 µM	CCC[C@@H](Nc1nc(Nc2cncc(C3CC3)c2)c(C(N)=O)cc1F)[C@H](C)N [Example 006-223, 6-(((2S,3R)-2-aminohexan-3-yl)amino)-2-((5-cyclopropylpyridin-3-yl)amino)-5-fluoronicotinamide]
0.01 to 0.05 µM	< 0.065 µM	C[C@@H](N)[C@@H](C)Nc1nc(Nc2ccc3ncccc3c2)c(C(N)=O)cc1F [Example 006-224, 6-(((2R,3R)-3-aminobutan-2-yl)amino)-5-fluoro-2-((quinolin-6-yl)amino)nicotinamide]
< 0.01 µM	0.065 to 0.13 µM	CC(C)C[C@H](CN)Nc1nc(Nc2ccc3cnn(C)c3c2)c(C(N)=O)cc1F [Example 006-226, (R)-6-((1-amino-4-methylpentan-2-yl)amino)-5-fluoro-2-((1-methyl-1H-indazol-6-yl)amino)nicotinamide]
< 0.01 µM	0.13 to 0.2 µM	CC(C)C[C@H](CN)Nc1nc(Nc2cccc3c2cnn3C)c(C(N)=O)cc1F [Example 006-227, (R)-6-((1-amino-4-methylpentan-2-yl)amino)-5-fluoro-2-((1-methyl-1H-indazol-4-yl)amino)nicotinamide]
< 0.01 µM	0.13 to 0.2 µM	CC(C)C[C@H](CN)Nc1nc(Nc2ccc3cccnc3c2)c(C(N)=O)cc1F [Example 006-228, (R)-6-((1-amino-4-methylpentan-2-yl)amino)-5-fluoro-2-((quinolin-7-yl)amino)nicotinamide]
< 0.01 µM	0.065 to 0.13 µM	CC(C)C[C@H](CN)Nc1nc(Nc2cccc3ncccc23)c(C(N)=O)cc1F [Example 006-229, (R)-6-((1-amino-4-methylpentan-2-yl)amino)-5-fluoro-2-((quinolin-5-yl)amino)nicotinamide]
< 0.01 µM	0.13 to 0.2 µM	COc1ccc2ncc(Nc3nc(N[C@@H](CN)CC(C)C)c(F)cc3C(N)=O)cc2c1 [Example 006-232, (R)-6-((1-amino-4-methylpentan-2-yl)amino)-5-fluoro-2-((6-methoxyquinolin-3-yl)amino)nicotinamide]
0.01 to 0.05 µM	0.13 to 0.2 µM	Cc1ccc(Nc2nc(N[C@@H](CN)CC(C)C)c(F)cc2C(N)=O)cn1 [Example 006-233, (R)-6-((1-amino-4-methylpentan-2-yl)amino)-5-fluoro-2-((6-methylpyridin-3-yl)amino)nicotinamide]
< 0.01 µM	0.065 to 0.13 µM	COc1cc(Nc2nc(N[C@@H](CN)CC(C)C)c(F)cc2C(N)=O)ccn1 [Example 006-234, (R)-6-((1-amino-4-methylpentan-2-yl)amino)-5-fluoro-2-((2-methoxypyridin-4-yl)amino)nicotinamide]
< 0.01 µM	< 0.065 µM	CCC[C@@H](Nc1nc(Nc2ccc3c(cnn3C)c2)c(C(N)=O)cc1F)[C@H](C)N [Example 006-236, 6-(((2S,3R)-2-aminohexan-3-yl)amino)-5-fluoro-2-((1-methyl-1H-indazol-5-yl)amino)nicotinamide]
